Measured values as given in patent publication US20170020838A1, “TREATMENT FOR RESPIRATORY DISEASE” (MUCOKINETICA LIMITED, priority 2014, published 2017).

Test system: ciliary transport of pig airway mucus secretions on the ex vivo pig trachea
Assay: Ciliary transport of mucus secretions (tracheal mucus velocity) on ex vivo normal pig trachea
Settings: for first time point where increased ciliary transport is observed (class summary): Classes 2 and 3, after application of the treatment; for onset and duration profile of increased ciliary transport of secretions: normal pig trachea, single 10 min treatment; for class of ciliary transport enhancer: three classes of ENaC regulating substances; for time of maximum transport speed following initiation of treatment / first time point with increased ciliary transport compared to BSS controls: 0.1 mM UTP; for first time point with increased ciliary transport compared to BSS controls: applied 10 min in BSS: 10^−4 M amiloride, +50 mM-NaCl, 100 mosM-mannitol, 100 mosM-sodium gluconate, combinations with 10^−5M Rx
Protocol: The lumen of each trachea was cleaned by gentle irrigation with BSS. Tracheas were opened longitudinally with scissors along the posterior aspect and mounted with the posterior aspect upwards in a moist air-tight box. An aliquot of pig airway mucus approximately 3 mm diameter was placed on the mucosal surface close to the distal end of each trachea. Tracheal mucus velocity (TMV mm/min) was measured by recording the distance moved, towards the laryngeal end of the trachea, in a given time. At the start of the study three measurements of TMV were made for each trachea to establish a baseline rate for the trachea. Solutions were then pipetted onto the luminal mucosal surface of tracheas for 10 min; BSS control tracheas (open circles; n=6); 10^−4 M amiloride in BSS (closed squares; n=6). Excess solution was then tipped off the mucosal surface and measurement of TMV repeated. TMV results at each time point are expressed as % of the baseline TMV, ciliary transport index (mean±SD).
Pig tracheas (from larynx to carina) from normal wild type animals were obtained from a local abattoir or Veterinary University. Transgenic CF piglets were produced as described by Klymiuk et al. 2012, and tracheas were obtained at a Veterinary University. The lumen of each trachea was cleaned by gentle irrigation with BSS. Tracheas were opened longitudinally with scissors along the posterior aspect and mounted with the posterior aspect upwards in a moist air-tight box. An aliquot of pig airway mucus approximately 3 mm diameter was placed on the mucosal surface close to the distal end of each trachea. Tracheal mucus velocity (TMV mm/min) was measured by recording the distance moved, towards the laryngeal end of the trachea, in a given time. At the start of a study three measurements of TMV were made for each trachea to establish a baseline rate for the trachea. Solutions were then pipetted onto the luminal mucosal surface of tracheas for 10 min. Then excess solution was tipped off the mucosal surface and measurement of TMV repeated. TMV results at each time point are expressed as % of the baseline TMV, ciliary transport index (mean±SD).

| SMILES | ciliary transport speed at the first two time points (25 and 40 min) compared to BSS controls (10^−5M in BSS) | ciliary transport at 24 h following exposure to the treatment (class summary) (Class 3) | first time point where increased ciliary transport is observed (class summary) | dose of maximum increase in ciliary transport (at 3 h 40 min, tested 10^−9 M to 10^−5 M) | onset and duration profile of increased ciliary transport of secretions | class of ciliary transport enhancer | time of maximum transport speed following initiation of treatment (10^−4 M amiloride) | first time point with increased ciliary transport compared to BSS controls | difference from BSS control tracheas at 40 min, 55 min and 1 h 10 min (10^−4 M amiloride) | duration of stimulation of ciliary transport (10^−4 M amiloride) | time by which transport speed returned to control levels (10^−4 M amiloride) | stimulated ciliary transport through to (last time point) (10^−4 M amiloride in BSS applied 10 min) | onset of increased ciliary transport of secretions (class summary) (Class 1) | return to control transport rate (class summary) (Class 1) | peak increase in the rate of ciliary transport (class summary) (Classes 1 to 3 of ciliary transport enhancers) |
| --- | --- | --- | --- | --- | --- | --- | --- | --- | --- | --- | --- | --- | --- | --- | --- |
| N=C(N)Nc1ccc(C(=O)Oc2ccc3cc(C(=N)N)ccc3c2)cc1 [6-amidino-2-napthyl 4-guanidinobenzoate] | no increase in speed | continues to exceed control transport rate | 55 min | 10^−6 M | slow-onset long duration | Slow onset—long duration |  |  |  |  |  |  |  |  |  |
| O=c1ccn([C@@H]2O[C@H](COP(=O)(O)OP(=O)(O)OP(=O)(O)O)[C@@H](O)[C@H]2O)c(=O)[nH]1 [UTP, uridine 5′-triphosphate] |  |  | 25 min |  | medium-onset medium duration | Medium onset—medium duration | 55 min | 25 min |  |  |  |  |  |  |  |
| N=C(N)NC(=O)c1nc(Cl)c(N)nc1N [amiloride] |  |  |  |  | rapid onset and of short duration | Rapid onset—short duration | 25 min | 10 min | no significant difference | less than 1 h | ≤ 40 min | 35 min | immediate | ≤ 40 min | 30% |
| OC[C@@H](O)[C@@H](O)[C@H](O)[C@H](O)CO [hyperosmotic mannitol, mannitol] |  |  | 25 min |  | medium-onset medium duration | Medium onset—medium duration |  | 25 min |  |  |  |  |  |  |  |
| O=C([O-])[C@H](O)[C@@H](O)[C@H](O)[C@H](O)CO.[Na+] [hyperosmotic sodium gluconate, sodium gluconate] |  |  | 25 min |  | medium-onset medium duration | Medium onset—medium duration |  | 25 min |  |  |  |  |  |  |  |
